Experimental data published in PubChem BioAssay (NCI).
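Where inhibition never reached the appropriate level, the endpoint shown equals the highest concentration tested. Otherwise, values were interpolated linearly from a five-concentration, 48-hour dose response in 96-well plates. TGI denotes the concentration required for complete inhibition of growth.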

Key:
Test in all cases: inhibition of tumour cell growth, NCI panel, 48 h
[1] = test system: 786-0 renal
[2] = test system: A498 renal
[3] = test system: A549 NSCLC
[4] = test system: ACHN renal
[5] = test system: BT-549 breast
[6] = test system: CAKI-1 renal
[7] = test system: CCRF-CEM leukemia
[8] = test system: COLO 205 colon
[9] = test system: DU-145 prostate
[10] = test system: EKVX NSCLC
[11] = test system: HCC-2998 colon
[12] = test system: HCT-116 colon
[13] = test system: HCT-15 colon
[14] = test system: HL-60(TB) leukemia
[15] = test system: HS 578T breast
[16] = test system: HT29 colon
[17] = test system: IGROV1 ovarian
[18] = test system: K-562 leukemia
[19] = test system: KM12 colon
[20] = test system: LOX IMVI melanoma
[21] = test system: M14 melanoma
[22] = test system: MALME-3M melanoma
[23] = test system: MCF7 breast
[24] = test system: MDA-MB-231 breast
[25] = test system: MDA-MB-435
[26] = test system: MDA-N
[27] = test system: MOLT-4 leukemia
[28] = test system: NCI-H226 lung
[29] = test system: NCI-H23 lung
[30] = test system: NCI-H460 lung
[31] = test system: NCI-H522 lung
[32] = test system: NCI/ADR-RES ovarian
[33] = test system: OVCAR-3 ovarian
[34] = test system: OVCAR-4 ovarian
[35] = test system: OVCAR-5 ovarian
[36] = test system: OVCAR-8 ovarian
[37] = test system: PC-3 prostate
[38] = test system: RPMI-8226 leukemia
[39] = test system: SF-268 CNS
[40] = test system: SF-295 CNS
[41] = test system: SF-539 CNS
[42] = test system: SK-MEL-2 melanoma
[43] = test system: SK-MEL-28 melanoma
[44] = test system: SK-MEL-5 melanoma
[45] = test system: SK-OV-3 ovarian
[46] = test system: SN12C renal
[47] = test system: SNB-19 CNS
[48] = test system: SNB-75 CNS
[49] = test system: SW-620 colon
[50] = test system: T-47D breast
[51] = test system: TK-10 renal
[52] = test system: U251 CNS
[53] = test system: UACC-257 melanoma
[54] = test system: UACC-62 melanoma
[55] = test system: UO-31 renal
[56] = test system: HOP-62 NSCLC
[57] = test system: HOP-92 NSCLC
[58] = test system: RXF 393 renal

Measured: TGI

CC1=CCCC(C)(O)C2CC(CCC3(C)OC3CC1)C(C)C(=O)O2 (stereo unspecified)
> 100 µM: [1] | [2] | [3] | [4] | [5] | [6] | [7] | [8] | [9] | [10] | [11] | [12] | [13] | [14] | [15] | [16] | [17] | [18] | [19] | [20] | [21] | [22] | [23] | [24] | [25] | [26] | [27] | [28] | [29] | [30] | [31] | [32] | [33] | [34] | [35] | [36] | [37] | [38] | [39] | [40] | [41] | [42] | [43] | [44] | [45] | [46] | [47] | [48] | [49] | [50] | [51] | [52] | [53] | [54] | [55]

CC1=C(C(=O)NNC(=O)c2ccccc2)CC(C(=O)NNC(=O)c2ccccc2)=C(C)N1
> 100 µM: [1] | [2] | [3] | [4] | [5] | [6] | [7] | [8] | [9] | [10] | [11] | [12] | [13] | [14] | [56] | [57] | [15] | [16] | [17] | [18] | [19] | [20] | [21] | [23] | [24] | [25] | [26] | [27] | [28] | [29] | [30] | [31] | [32] | [33] | [34] | [35] | [36] | [37] | [38] | [58] | [39] | [40] | [41] | [42] | [43] | [44] | [45] | [46] | [47] | [49] | [50] | [51] | [52] | [53] | [54] | [55]

CCCCCCCCCCCC(=O)c1c(O)cc(C)oc1=O
> 100 µM: [1] | [2] | [3] | [4] | [5] | [6] | [7] | [8] | [9] | [10] | [11] | [12] | [13] | [14] | [56] | [15] | [16] | [17] | [18] | [19] | [20] | [21] | [22] | [23] | [24] | [25] | [26] | [27] | [28] | [29] | [30] | [31] | [32] | [33] | [35] | [36] | [37] | [38] | [39] | [40] | [42] | [43] | [45] | [46] | [47] | [48] | [49] | [50] | [51] | [52] | [53] | [54] | [55]
93.3 µM: [41]
68.6 µM: [44]
